Measured values published in ChEMBL document CHEMBL1201862, “PubChem BioAssay data set” (2004).
Activity calls are given as the source filed them.

Key:
[1] = target: T1, Corticotropin-releasing factor receptor 2/Corticotropin-releasing factor-binding protein (Homo sapiens, UniProt P24387+Q13324); assay: Dose Response confirmation of uHTS hits for small molecule antagonists of the CRF-binding protein and CRF-R2 receptor complex.; assay type: functional; conditions: read-out: IC50_Mean
T1 sequence (Q13324 whole entry): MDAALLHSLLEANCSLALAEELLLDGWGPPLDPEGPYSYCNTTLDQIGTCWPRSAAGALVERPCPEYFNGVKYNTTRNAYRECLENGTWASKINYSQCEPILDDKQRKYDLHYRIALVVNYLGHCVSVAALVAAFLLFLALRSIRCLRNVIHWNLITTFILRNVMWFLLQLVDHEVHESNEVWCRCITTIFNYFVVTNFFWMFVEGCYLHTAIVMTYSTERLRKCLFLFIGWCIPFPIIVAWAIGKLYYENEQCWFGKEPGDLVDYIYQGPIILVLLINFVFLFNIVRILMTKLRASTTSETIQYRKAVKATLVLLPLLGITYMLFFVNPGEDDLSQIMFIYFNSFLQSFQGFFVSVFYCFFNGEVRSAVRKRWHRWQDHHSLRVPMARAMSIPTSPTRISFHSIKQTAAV
T1 sequence (P24387 whole entry): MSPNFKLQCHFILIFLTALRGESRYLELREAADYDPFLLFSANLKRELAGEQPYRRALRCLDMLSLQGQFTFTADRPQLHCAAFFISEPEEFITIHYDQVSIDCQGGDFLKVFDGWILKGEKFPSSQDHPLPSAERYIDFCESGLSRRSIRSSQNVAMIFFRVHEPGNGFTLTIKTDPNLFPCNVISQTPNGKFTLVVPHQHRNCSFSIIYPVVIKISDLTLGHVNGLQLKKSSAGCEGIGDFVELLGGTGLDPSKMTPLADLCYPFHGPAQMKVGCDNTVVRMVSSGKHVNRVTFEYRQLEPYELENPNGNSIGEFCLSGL

[2] = target: T1, Corticotropin-releasing factor receptor 2/Corticotropin-releasing factor-binding protein; assay: activators of CRF receptor 2 with binding protein – uHTS hits, confirmation (AID 602473); assay type: functional; conditions: read-out: EC50_Mean
H9c2 = assay: cells; assay type: functional, cell-based; conditions: Rattus norvegicus, H9c2, Myocardium;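 note: confirmatory concentration-response retest of ultra-high-throughput screening hits for modulation of myocardial damage; cell death induced by hydrogen peroxide oxidative stress; compound pretreatment for 60 min then peroxide exposure for 2 h; potency is for protecting the cells against peroxide damage rather than for killing them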
Large T antigen = Large T antigen (Simian virus 40, UniProt P03070); assay type: functional, Betapolyomavirus macacae;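 note: Confirmatory-stage PubChem screen for compounds that inhibit SV40 T antigen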
Chain of Large T antigen (P03070 whole entry): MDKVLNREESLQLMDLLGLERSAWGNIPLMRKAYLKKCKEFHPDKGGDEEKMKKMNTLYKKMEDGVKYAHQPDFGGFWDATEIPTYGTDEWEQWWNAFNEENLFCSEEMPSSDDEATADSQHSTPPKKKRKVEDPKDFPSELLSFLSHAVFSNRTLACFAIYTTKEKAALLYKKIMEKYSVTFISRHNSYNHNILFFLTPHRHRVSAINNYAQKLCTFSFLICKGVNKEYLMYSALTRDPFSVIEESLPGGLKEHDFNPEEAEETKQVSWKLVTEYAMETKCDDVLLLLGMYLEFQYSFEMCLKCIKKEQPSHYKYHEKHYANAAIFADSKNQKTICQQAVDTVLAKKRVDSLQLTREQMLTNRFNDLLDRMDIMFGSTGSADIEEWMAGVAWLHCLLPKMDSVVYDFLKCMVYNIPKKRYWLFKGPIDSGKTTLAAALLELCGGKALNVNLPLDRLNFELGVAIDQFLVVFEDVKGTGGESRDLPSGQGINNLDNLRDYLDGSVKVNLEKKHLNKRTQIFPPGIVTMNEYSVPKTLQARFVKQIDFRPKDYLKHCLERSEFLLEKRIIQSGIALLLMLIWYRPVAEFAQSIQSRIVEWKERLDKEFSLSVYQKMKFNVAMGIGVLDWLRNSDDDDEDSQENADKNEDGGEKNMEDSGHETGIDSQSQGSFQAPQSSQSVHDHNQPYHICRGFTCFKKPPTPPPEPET

[3] = target: T2, Replicative DNA helicase DnaB (Mycobacterium tuberculosis, UniProt P9WMR3); assay: DnaB intein splicing inhibitors, dose response, biochemical, cell-free fluorescence (AID 449749); assay type: functional
T2 sequence (P9WMR3 whole entry): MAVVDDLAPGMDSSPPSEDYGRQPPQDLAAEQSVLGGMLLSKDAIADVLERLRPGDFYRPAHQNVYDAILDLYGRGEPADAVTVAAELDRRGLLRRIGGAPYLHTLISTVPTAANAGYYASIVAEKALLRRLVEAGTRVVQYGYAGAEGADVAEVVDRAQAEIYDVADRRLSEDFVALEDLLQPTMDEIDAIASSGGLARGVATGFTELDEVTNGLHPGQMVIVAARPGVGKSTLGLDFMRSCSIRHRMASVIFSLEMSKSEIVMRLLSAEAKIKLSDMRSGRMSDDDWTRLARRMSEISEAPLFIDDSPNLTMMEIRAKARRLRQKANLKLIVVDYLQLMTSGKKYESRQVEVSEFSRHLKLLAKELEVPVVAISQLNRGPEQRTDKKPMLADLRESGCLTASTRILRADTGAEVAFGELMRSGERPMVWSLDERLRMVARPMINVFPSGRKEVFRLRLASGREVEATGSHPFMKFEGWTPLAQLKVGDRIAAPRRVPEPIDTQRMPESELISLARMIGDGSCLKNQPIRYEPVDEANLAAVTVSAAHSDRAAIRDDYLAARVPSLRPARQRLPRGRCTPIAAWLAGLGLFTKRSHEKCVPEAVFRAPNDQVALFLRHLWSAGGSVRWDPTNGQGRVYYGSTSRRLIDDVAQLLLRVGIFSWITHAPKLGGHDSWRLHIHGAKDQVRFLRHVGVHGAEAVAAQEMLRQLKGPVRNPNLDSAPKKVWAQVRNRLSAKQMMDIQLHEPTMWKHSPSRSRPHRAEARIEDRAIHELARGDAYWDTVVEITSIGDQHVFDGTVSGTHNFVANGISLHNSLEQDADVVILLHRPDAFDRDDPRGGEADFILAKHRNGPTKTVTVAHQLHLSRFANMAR

Protein RecA = target: T3, Protein RecA (Mycobacterium tuberculosis, UniProt P9WHJ3); assay: Fluorescence Cell-Free Homogeneous Dose Retest to Identify Inhibitors of RecA-Intein Splicing Activity. [Related pubchem assays (depositor defined):AID2097, AID2223, AID489010, AID492950]; assay type: functional
T3 sequence (P9WHJ3 whole entry): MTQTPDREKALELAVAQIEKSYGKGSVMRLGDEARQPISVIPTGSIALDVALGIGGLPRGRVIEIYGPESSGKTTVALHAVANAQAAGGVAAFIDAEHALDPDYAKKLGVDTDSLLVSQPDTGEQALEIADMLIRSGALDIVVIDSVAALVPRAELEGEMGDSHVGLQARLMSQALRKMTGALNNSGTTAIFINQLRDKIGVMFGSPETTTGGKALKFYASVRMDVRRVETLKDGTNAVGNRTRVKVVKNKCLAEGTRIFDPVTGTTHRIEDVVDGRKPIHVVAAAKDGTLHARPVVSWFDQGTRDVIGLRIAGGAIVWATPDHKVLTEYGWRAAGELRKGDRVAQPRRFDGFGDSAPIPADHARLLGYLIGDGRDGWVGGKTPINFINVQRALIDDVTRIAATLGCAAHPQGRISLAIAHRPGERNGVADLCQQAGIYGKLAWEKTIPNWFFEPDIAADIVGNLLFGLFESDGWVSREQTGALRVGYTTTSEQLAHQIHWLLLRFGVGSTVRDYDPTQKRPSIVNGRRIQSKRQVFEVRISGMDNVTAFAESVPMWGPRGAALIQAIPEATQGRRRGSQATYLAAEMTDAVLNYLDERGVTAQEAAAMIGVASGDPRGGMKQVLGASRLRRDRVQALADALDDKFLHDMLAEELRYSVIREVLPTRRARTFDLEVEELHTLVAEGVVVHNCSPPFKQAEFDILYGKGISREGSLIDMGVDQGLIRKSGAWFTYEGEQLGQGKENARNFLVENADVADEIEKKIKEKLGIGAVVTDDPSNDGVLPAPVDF

Protein skinhead-1 = target: T4, Protein skinhead-1 (Caenorhabditis elegans, UniProt P34707); assay type: functional
T4 sequence (P34707 whole entry): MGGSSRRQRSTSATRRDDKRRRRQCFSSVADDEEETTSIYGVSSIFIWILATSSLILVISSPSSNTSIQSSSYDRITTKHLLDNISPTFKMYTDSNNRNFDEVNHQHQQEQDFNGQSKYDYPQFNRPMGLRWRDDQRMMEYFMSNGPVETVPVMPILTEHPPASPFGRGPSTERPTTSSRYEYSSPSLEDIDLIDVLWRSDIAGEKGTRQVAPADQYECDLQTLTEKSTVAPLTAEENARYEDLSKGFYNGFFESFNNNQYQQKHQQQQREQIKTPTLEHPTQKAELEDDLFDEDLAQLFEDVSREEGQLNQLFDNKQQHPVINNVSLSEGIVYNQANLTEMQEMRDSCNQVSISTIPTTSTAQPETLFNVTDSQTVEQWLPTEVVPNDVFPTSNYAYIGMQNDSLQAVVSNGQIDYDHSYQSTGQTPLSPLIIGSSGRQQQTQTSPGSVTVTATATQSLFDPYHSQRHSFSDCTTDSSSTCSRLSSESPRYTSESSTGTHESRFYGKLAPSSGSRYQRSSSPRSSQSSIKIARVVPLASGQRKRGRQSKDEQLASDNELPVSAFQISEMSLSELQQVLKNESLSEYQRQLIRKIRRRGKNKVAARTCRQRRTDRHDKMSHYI

[4] = Trypanosoma cruzi growth suppression in host cells – NIH3T3 host cells, beta-gal luminescence, confirmation (AID 2044); assay type: functional, cell-based;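 note: intracellular parasites grown in NIH/3T3 mouse fibroblasts as host cells; luminescent beta-galactosidase reporter signal from transgenic T. cruzi replicating inside host cells; inhibitors lower the luminescence signal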
[5] = NIH3T3 cell viability loss – ATP luminescence, mouse fibroblasts, counter-screen, dose response (AID 2010); assay type: functional, cell-based;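 note: cells exposed to compound for about 90 hours before reading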
[6] = target: T5, Rac GTPase-activating protein 1 (Homo sapiens, UniProt Q9H0H5); assay: blockers of MgcRacGAP-driven Rac1 GTP hydrolysis – biochemical, ADP Hunter fluorescence, primary and confirmatory, confirmation (AID 624330); assay type: functional
T5 sequence (Q9H0H5 whole entry): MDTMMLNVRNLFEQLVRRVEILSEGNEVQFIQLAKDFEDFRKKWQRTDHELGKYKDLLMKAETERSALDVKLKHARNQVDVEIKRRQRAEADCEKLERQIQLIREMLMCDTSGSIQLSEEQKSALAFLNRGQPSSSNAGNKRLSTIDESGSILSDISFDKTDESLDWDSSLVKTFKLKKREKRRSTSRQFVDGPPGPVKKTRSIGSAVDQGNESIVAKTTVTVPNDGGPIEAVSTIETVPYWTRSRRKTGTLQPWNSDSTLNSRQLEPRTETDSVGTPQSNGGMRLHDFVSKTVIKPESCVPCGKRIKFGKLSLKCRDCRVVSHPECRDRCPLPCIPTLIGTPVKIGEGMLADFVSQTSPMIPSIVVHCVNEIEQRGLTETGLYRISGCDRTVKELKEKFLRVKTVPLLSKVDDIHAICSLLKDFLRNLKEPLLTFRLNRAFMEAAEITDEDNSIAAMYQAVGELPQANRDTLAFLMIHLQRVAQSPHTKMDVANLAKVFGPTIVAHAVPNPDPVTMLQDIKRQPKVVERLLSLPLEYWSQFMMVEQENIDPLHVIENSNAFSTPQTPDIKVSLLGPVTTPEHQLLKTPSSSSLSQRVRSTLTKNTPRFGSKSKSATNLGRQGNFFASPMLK

| Compound | IC50 [1] | EC50 [2] | also measured |
| --- | --- | --- | --- |
| COc1ccc(-c2cc(C(=O)NC3CCCC3)c3ccccc3n2)cc1OC | > 47.1 µM (inactive) | > 53 µM (inactive) | – |
| CCN(C(=O)CCc1nnc2ccc(N3CCC4(CC3)OCCO4)nn12)c1ccccc1 | > 47.1 µM (inactive) | > 53 µM (inactive) | – |
| CN(C(=O)COC(=O)CCc1nc2ccccc2c(=O)[nH]1)C1CCS(=O)(=O)C1 (stereo not drawn) | 40.1 µM (active) | > 53 µM (inactive) | – |
| CCOc1ccc2nc(O)c(CN(CCO)C3(c4nnnn4C4CCCCC4)CCCCC3)cc2c1 | – | – | IC50 (H9c2): 26.4 µM (active) |
| CCC(=O)c1ccc(OCC(=O)NCCCN2CCOCC2)cc1 | > 47.1 µM (inactive) | > 53 µM (inactive) | – |
| O=C1CCSc2c1ccc1ccccc21 | > 47.1 µM (inactive) | > 53 µM (inactive) | – |
| COc1cc(NC(=O)[C@H](C)NC(=O)N2CCn3c2nc2ccccc23)cc(OC)c1 | > 47.1 µM (inactive) | > 53 µM (inactive) | – |
| NC(=NOCC(=O)Nc1ccccc1)c1nonc1N | > 47.1 µM (inactive) | > 53 µM (inactive) | – |
| CCN1C(=O)/C(=C/c2nc3ccccc3c(=O)n2-c2ccccc2)c2ccccc21 | – | – | IC50 (H9c2): > 79 µM (inactive) |
| Nc1nn(S(=O)(=O)c2ccccc2)cc1-c1ccc([N+](=O)[O-])cc1 | > 47.1 µM (inactive) | > 53 µM (inactive) | – |
| CC(NC(=O)Cn1nc(C(=O)O)c2ccccc2c1=O)c1ccccc1 (stereo not drawn) | – | – | IC50 (H9c2): 18.3 µM (active) |
| CCOC(=O)Cc1nnc(O)c2ccccc12 | – | – | IC50 (H9c2): 11.1 µM (active) |
| Cc1cc(F)ccc1S(=O)(=O)N(C(=O)c1ccncc1)c1ccc(OC(=O)c2ccncc2)cc1 | – | – | IC50 (Large T antigen): 50.7 µM (active); AC50 [3]: 4.53 µM (active); EC50 (Protein RecA): 14.1 µM (active) |
| CS(=O)(=O)N1CCN(C(=O)COc2ccc3ccccc3c2)CC1 | > 47.1 µM (inactive) | > 53 µM (inactive) | – |
| O=S(=O)(c1ccc(F)cc1)n1ccc(-c2cccc(OCc3c(F)cccc3Cl)c2)n1 | – | – | IC50 (Protein skinhead-1): > 100 µM (inactive) |
| CCOc1cccc(Nc2cc3n(c(=O)n2)CCc2cc(OC)c(OC)cc2-3)c1 | – | – | IC50 (H9c2): 12.8 µM (active) |
| COc1ccc2nc(O)c(CN(Cc3ccco3)C(c3nnnn3Cc3ccccc3)C(C)C)cc2c1 (stereo not drawn) | – | – | EC50 [4]: > 60 µM (not active); EC50 [5]: > 60 µM (not active); IC50 (H9c2): > 79 µM (inactive) |
| CCc1c(C)nc(SCC(=O)N2CCN(c3ccccc3OC)CC2)nc1O | > 47.1 µM (inactive) | > 53 µM (inactive) | – |
| CCOC(=O)C(C)On1c(-c2ccc(Cl)cc2)nc2ccc([N+](=O)[O-])cc21 (stereo not drawn) | – | – | IC50 (Protein skinhead-1): > 100 µM (inactive) |
| O=C1/C(=C/c2cccs2)SC(=S)N1CC(=O)N1CCCCC1CCO (stereo not drawn) | – | – | IC50 (Protein skinhead-1): > 100 µM (inactive) |
| C/C(=N/NC(=O)CSc1nc2ccccc2n1C)c1ccc(O)cc1 | – | – | IC50 (Large T antigen): 30.9 µM (active); IC50 [6]: 138 µM (active) |
| O=C(Nc1ccccc1)Nc1csc2ccccc12 | – | – | IC50 (Protein skinhead-1): > 100 µM (inactive) |
| Cc1cccc(NC(=O)Cc2ccc(NC3=NC4CS(=O)(=O)CC4S3)cc2)c1 (stereo not drawn) | > 47.1 µM (inactive) | > 53 µM (inactive) | – |
| CCCCC(=O)NCc1ccc2c(c1)cc(C)n2C | – | – | IC50 (Protein skinhead-1): > 100 µM (inactive) |
| O=C(Cn1nc(Cl)nc1Cl)Nc1ccccc1 | > 47.1 µM (inactive) | > 53 µM (inactive) | – |
| C/C(=N\CCCn1ccnc1)c1c(-c2ccccc2)[nH]n(-c2nc3ccccc3s2)c1=O | – | – | IC50 (H9c2): > 79 µM (inactive) |
